The test addresses T1, recombinant human oncostatin M (Homo sapiens, UniProt P13725).
T1 construct: gene OSM; labelled with RED-NHS 2nd generation dye for MST
T1 sequence (P13725 26-221): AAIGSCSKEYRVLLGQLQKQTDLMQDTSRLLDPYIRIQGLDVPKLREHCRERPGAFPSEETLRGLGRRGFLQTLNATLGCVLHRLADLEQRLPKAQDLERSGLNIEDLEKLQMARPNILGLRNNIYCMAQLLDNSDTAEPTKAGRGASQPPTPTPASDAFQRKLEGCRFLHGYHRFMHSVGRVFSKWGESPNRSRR
Description: microscale thermophoresis. The format is binding.

Each structure is given as a SMILES string.

Here are results for 1 compound from article PMC12073679, “Drug Repurposing to Inhibit Oncostatin M in Crohn’s Disease” (Molecules, 2025).

Take `CC1(C)[C@@H]2CC[C@@]1(CS(=O)(=O)O)C(=O)/C2=C/c1ccc(/C=C2/C(=O)[C@]3(CS(=O)(=O)O)CC[C@H]2C3(C)C)cc1` [1a, Ecamsule]: the Kd stood at 11.4 ± 2.83 µM.

As usually defined, the Kd is the concentration at which binding is half-saturated.
